Earlier results in patent US20140128375A1, “B[…] AS CGRP RECEPTOR ANTAGONISTS” (priority 2006, published 2014).

Test system: CGRP
Conditions: marmoset, electrical stimulation of the trigeminal ganglion

**Q.** Which “effect on increase in facial blood flow” value does the source give for NCCCC[C@H](NC(=O)[C@@H](Cc1cc(Br)c(O)c(Br)c1)NC(=O)N1CCC(N2Cc3ccccc3NC2=O)CC1)C(=O)N1CCN(c2ccncc2)CC1 [BIBN4096BS] here?
**A.** The value was “could be blocked”.
